In one series the target is Melanocortin receptor 3 (Homo sapiens, UniProt P41968). The format is cell membranes, HEK293, Membrane. The following applies: hek293. Note: in other assays of this panel Not Active means under 50% inhibition at 10 µM.
The target in the next series is T1, Adenosine receptor A1 (Homo sapiens, UniProt P30542).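 Note: radioligand binding assay at the adenosine A1 receptor, with DPCPX serving as the labelled ligand; in other assays of this panel Not Active means under 50% inhibition at 10 µM.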
T1 sequence (P30542 whole entry): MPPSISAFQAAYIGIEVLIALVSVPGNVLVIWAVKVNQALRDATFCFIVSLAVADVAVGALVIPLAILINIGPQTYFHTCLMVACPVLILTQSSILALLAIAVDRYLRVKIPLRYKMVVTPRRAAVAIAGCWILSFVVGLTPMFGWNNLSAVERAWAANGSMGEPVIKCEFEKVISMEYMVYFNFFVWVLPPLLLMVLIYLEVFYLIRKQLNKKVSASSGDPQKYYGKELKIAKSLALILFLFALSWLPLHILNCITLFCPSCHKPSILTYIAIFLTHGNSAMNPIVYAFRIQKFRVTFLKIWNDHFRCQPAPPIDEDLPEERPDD
The format is cell membranes, CHO, Membrane.

The target in a further series is T2, Cytochrome P450 2A6 (Homo sapiens, UniProt P11509). Note: in other assays of this panel Not Active means under 50% inhibition at 10 µM.
T2 sequence (P11509 whole entry): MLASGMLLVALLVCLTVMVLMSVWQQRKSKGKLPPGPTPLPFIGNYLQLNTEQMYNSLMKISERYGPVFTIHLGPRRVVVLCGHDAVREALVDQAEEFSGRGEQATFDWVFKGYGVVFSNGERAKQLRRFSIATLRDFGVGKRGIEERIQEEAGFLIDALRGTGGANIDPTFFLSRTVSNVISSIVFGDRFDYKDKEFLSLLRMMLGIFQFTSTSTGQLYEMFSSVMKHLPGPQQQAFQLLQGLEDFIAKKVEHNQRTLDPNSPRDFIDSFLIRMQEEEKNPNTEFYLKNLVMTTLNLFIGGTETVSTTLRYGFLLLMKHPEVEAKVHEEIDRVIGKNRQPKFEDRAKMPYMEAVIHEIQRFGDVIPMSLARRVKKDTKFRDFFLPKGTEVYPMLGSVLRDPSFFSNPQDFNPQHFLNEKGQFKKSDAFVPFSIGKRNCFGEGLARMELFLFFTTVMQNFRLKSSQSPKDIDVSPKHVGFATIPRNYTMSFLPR
As to conditions: bti-tn-5b1-4.

The next series deals with Melanocortin receptor 5 (Homo sapiens, UniProt P33032). The format is cell membranes, HEK293, Membrane. As to conditions: hek293.
Sequence of Melanocortin receptor 5 (P33032 whole entry): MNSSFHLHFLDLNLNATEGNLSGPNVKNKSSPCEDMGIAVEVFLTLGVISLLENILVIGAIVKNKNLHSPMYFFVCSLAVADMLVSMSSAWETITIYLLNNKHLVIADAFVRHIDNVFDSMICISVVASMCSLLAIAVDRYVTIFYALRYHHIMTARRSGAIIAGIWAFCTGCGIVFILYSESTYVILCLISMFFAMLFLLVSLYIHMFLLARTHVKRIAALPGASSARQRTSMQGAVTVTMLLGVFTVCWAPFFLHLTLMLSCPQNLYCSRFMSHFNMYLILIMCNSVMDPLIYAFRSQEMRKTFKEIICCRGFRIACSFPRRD
The next series addresses Cytochrome P450 2C9 (Homo sapiens, UniProt P11712). As to conditions: bti-tn-5b1-4.
The target in another series is Acetylcholinesterase (Homo sapiens, UniProt P22303). Kind of series: DRUGMATRIX: Acetylcholinesterase enzyme inhibition (substrate: acetylthiocholine). The format is cell-based, HEK293. The following applies: hek293; Not Active = under 50% inhibition at 10 µM.
Sequence of Acetylcholinesterase (P22303 whole entry): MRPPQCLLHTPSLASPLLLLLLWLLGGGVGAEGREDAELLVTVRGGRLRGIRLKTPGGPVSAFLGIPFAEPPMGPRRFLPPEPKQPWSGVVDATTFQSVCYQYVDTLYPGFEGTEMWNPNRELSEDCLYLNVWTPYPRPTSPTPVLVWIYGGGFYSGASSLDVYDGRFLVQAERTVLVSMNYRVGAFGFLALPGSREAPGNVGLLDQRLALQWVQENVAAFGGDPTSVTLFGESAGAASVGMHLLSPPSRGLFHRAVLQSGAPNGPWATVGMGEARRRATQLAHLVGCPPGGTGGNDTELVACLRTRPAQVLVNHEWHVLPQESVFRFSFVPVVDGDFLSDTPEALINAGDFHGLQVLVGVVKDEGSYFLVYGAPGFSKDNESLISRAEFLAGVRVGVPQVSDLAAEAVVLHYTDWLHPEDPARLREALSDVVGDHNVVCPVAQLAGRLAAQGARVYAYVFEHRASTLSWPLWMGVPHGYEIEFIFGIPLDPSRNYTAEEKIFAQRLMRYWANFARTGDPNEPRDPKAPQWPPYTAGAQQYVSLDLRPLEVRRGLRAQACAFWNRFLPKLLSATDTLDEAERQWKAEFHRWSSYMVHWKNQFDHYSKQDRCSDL

Structures are written as SMILES.

Sequence of Cytochrome P450 2C9 (P11712 whole entry): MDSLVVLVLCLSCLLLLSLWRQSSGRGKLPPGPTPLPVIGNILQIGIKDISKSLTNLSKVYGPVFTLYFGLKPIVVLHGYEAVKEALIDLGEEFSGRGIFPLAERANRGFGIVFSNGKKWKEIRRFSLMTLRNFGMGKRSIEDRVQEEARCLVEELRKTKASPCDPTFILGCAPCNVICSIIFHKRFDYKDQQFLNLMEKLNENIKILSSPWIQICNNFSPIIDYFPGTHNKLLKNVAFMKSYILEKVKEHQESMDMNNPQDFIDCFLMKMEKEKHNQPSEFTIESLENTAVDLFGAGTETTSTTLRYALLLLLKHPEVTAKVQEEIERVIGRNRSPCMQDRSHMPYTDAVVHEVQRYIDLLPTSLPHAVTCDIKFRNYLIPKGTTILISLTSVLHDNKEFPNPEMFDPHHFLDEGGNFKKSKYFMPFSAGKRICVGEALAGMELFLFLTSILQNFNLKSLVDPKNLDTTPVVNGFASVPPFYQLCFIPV
Sequence of Melanocortin receptor 3 (P41968 whole entry): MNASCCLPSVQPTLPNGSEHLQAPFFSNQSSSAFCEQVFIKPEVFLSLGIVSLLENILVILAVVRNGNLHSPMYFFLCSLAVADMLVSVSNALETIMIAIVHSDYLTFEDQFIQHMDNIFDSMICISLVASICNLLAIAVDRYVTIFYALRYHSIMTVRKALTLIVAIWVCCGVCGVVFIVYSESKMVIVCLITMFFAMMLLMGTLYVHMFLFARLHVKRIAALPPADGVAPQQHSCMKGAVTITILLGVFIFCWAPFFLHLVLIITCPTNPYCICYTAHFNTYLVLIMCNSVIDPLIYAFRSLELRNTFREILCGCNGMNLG

On to `OC(CCCN1CCCCC1)(c1ccccc1)c1ccccc1` [DIPHENIDOL], for which the IC50 entry against Melanocortin receptor 3, at Adenosine receptor A1 (cho), at Cytochrome P450 2A6, against Melanocortin receptor 5, against Cytochrome P450 2C9 and at Acetylcholinesterase was “Not Active” in each case. For the same compound, the Ki result on Cytochrome P450 2A6 and at Cytochrome P450 2C9 was “Not Active” in each case.

As to `C[C@H]1O[C@@H](n2cc(F)c(=O)[nH]c2=O)[C@H](O)[C@@H]1O` [DOXIFLURIDINE], the IC50 entry against Melanocortin receptor 3, on Adenosine receptor A1 (cho), against Cytochrome P450 2A6, against Melanocortin receptor 5, at Cytochrome P450 2C9 and against Acetylcholinesterase was “Not Active” each time. For the same compound, the Ki result on Cytochrome P450 2A6 and on Cytochrome P450 2C9 was “Not Active” throughout.

On to `Cn1c(=O)c2c(ncn2CC(O)CO)n(C)c1=O` (configuration not stated) [DYPHYLLINE], for which the IC50 entry on Melanocortin receptor 3, on Adenosine receptor A1 (cho), against Cytochrome P450 2A6, against Melanocortin receptor 5, against Cytochrome P450 2C9 and at Acetylcholinesterase was “Not Active” each time. The Ki result on Cytochrome P450 2A6 and on Cytochrome P450 2C9 was “Not Active” throughout.

In the case of `CC[C@H]1CN2CCc3cc(OC)c(OC)cc3[C@@H]2C[C@@H]1C[C@H]1NCCc2cc(OC)c(OC)cc21` [EMETINE], the concentration for half-maximal inhibition (IC50) result against Melanocortin receptor 3, on Adenosine receptor A1 (cho), against Cytochrome P450 2A6, on Melanocortin receptor 5, against Cytochrome P450 2C9 and on Acetylcholinesterase was “Not Active” in each case. For the same compound, the Ki result on Cytochrome P450 2A6 and on Cytochrome P450 2C9 was “Not Active” throughout.

As to `C[C@@H](CO)NC(=O)[C@@H]1C=C2c3cccc4[nH]cc(c34)C[C@H]2N(C)C1` [ERGONOVINE], the IC50 entry against Melanocortin receptor 3, against Adenosine receptor A1 (cho), against Cytochrome P450 2A6, against Melanocortin receptor 5, against Cytochrome P450 2C9 and at Acetylcholinesterase was “Not Active” each time. The Ki entry on Cytochrome P450 2A6 and at Cytochrome P450 2C9 was “Not Active” throughout.

Turning to `COC(=O)CCc1ccc(OCC(O)CNC(C)C)cc1` (configuration not stated) [ESMOLOL], the IC50 result against Melanocortin receptor 3, on Adenosine receptor A1 (cho), against Cytochrome P450 2A6, against Melanocortin receptor 5, against Cytochrome P450 2C9 and at Acetylcholinesterase was “Not Active” each time. For the same compound, the Ki entry at Cytochrome P450 2A6 and on Cytochrome P450 2C9 was “Not Active” in each case.

As for `CCC1(C)CC(=O)NC1=O` (configuration not stated) [ETHOSUXIMIDE], the IC50 entry at Melanocortin receptor 3, on Adenosine receptor A1 (cho), against Cytochrome P450 2A6, on Melanocortin receptor 5, against Cytochrome P450 2C9 and against Acetylcholinesterase was “Not Active” in each case. Besides, the Ki entry on Cytochrome P450 2A6 and at Cytochrome P450 2C9 was “Not Active” each time.

Regarding `C#C[C@]1(OC(C)=O)CC[C@H]2[C@@H]3CCC4=C[C@@H](OC(C)=O)CC[C@@H]4[C@H]3CC[C@@]21C` [ETHYNODIOL DIACETATE], the IC50 result against Melanocortin receptor 3, against Adenosine receptor A1 (cho), on Cytochrome P450 2A6, on Melanocortin receptor 5, against Cytochrome P450 2C9 and against Acetylcholinesterase was “Not Active” each time. Further, the Ki entry at Cytochrome P450 2A6 and at Cytochrome P450 2C9 was “Not Active” throughout.

For `C=CCc1ccc(O)c(OC)c1` [EUGENOL], the IC50 result at Melanocortin receptor 3, at Adenosine receptor A1 (cho), on Cytochrome P450 2A6, against Melanocortin receptor 5, against Cytochrome P450 2C9 and at Acetylcholinesterase was “Not Active” throughout. Also, the Ki entry at Cytochrome P450 2A6 and at Cytochrome P450 2C9 was “Not Active” each time.

Take `CC(C(=O)O)c1cccc(Oc2ccccc2)c1` (configuration not stated) [FENOPROFEN]: the IC50 result on Melanocortin receptor 3, against Adenosine receptor A1 (cho), at Cytochrome P450 2A6, at Melanocortin receptor 5, against Cytochrome P450 2C9 and on Acetylcholinesterase was “Not Active” each time. The Ki result at Cytochrome P450 2A6 and on Cytochrome P450 2C9 was “Not Active” throughout.

Turning to `Nc1ccn([C@@H]2O[C@H](CO)[C@@H](O)C2(F)F)c(=O)n1` [GEMCITABINE], the IC50 entry at Melanocortin receptor 3, against Adenosine receptor A1 (cho), against Cytochrome P450 2A6, against Melanocortin receptor 5, on Cytochrome P450 2C9 and on Acetylcholinesterase was “Not Active” in each case. Besides, the Ki result at Cytochrome P450 2A6 and on Cytochrome P450 2C9 was “Not Active” each time.

As for `N=C(N)NC(=O)Cc1c(Cl)cccc1Cl` [GUANFACINE], the IC50 entry against Melanocortin receptor 3, against Adenosine receptor A1 (cho), against Cytochrome P450 2A6, at Melanocortin receptor 5, against Cytochrome P450 2C9 and at Acetylcholinesterase was “Not Active” throughout. The Ki entry on Cytochrome P450 2A6 and at Cytochrome P450 2C9 was “Not Active” in each case.

`NNc1nncc2ccccc12` [HYDRALAZINE]: the IC50 result at Melanocortin receptor 3, at Adenosine receptor A1 (cho), against Cytochrome P450 2A6, at Melanocortin receptor 5, on Cytochrome P450 2C9 and against Acetylcholinesterase was “Not Active” each time. Further, the Ki entry at Cytochrome P450 2A6 and on Cytochrome P450 2C9 was “Not Active” each time.

Turning to `CC(C)NNC(=O)c1ccncc1` [IPRONIAZID], the IC50 result against Melanocortin receptor 3, at Adenosine receptor A1 (cho), against Cytochrome P450 2A6, against Melanocortin receptor 5, at Cytochrome P450 2C9 and against Acetylcholinesterase was “Not Active” in each case. The Ki result at Cytochrome P450 2A6 and at Cytochrome P450 2C9 was “Not Active” in each case.

As to `Cc1c(OCC(F)(F)F)ccnc1C[S+]([O-])c1nc2ccccc2[nH]1` (configuration not stated) [LANSOPRAZOLE], the IC50 result on Melanocortin receptor 3, against Adenosine receptor A1 (cho), against Cytochrome P450 2A6, at Melanocortin receptor 5, at Cytochrome P450 2C9 and against Acetylcholinesterase was “Not Active” throughout. Also, the Ki result at Cytochrome P450 2A6 and on Cytochrome P450 2C9 was “Not Active” in each case.

For the compound `O=c1cc(N2CCOCC2)oc2c(-c3ccccc3)cccc12` [LY-294002], the IC50 result on Melanocortin receptor 3, against Adenosine receptor A1 (cho), against Cytochrome P450 2A6, at Melanocortin receptor 5, against Cytochrome P450 2C9 and against Acetylcholinesterase was “Not Active” each time. Also, the Ki entry at Cytochrome P450 2A6 and on Cytochrome P450 2C9 was “Not Active” each time.

As to `COc1ccc2[nH]cc(CCNC(C)=O)c2c1` [MELATONIN], the IC50 result against Melanocortin receptor 3, against Adenosine receptor A1 (cho), at Cytochrome P450 2A6, against Melanocortin receptor 5, on Cytochrome P450 2C9 and on Acetylcholinesterase was “Not Active” in each case. The Ki result on Cytochrome P450 2A6 and on Cytochrome P450 2C9 was “Not Active” each time.

Consider `NC(=O)C[S+]([O-])C(c1ccccc1)c1ccccc1` (configuration not stated) [MODAFINIL], for which the IC50 result against Melanocortin receptor 3, at Adenosine receptor A1 (cho), at Cytochrome P450 2A6, on Melanocortin receptor 5, on Cytochrome P450 2C9 and on Acetylcholinesterase was “Not Active” throughout. In addition, the Ki result at Cytochrome P450 2A6 and at Cytochrome P450 2C9 was “Not Active” in each case.

Turning to `CCN(CC)CCOCCC1=CCC2CC1C2(C)C` (configuration not stated) [MYRTECAINE], the IC50 entry against Melanocortin receptor 3, at Adenosine receptor A1 (cho), on Cytochrome P450 2A6, against Melanocortin receptor 5, at Cytochrome P450 2C9 and at Acetylcholinesterase was “Not Active” each time. Further, the Ki result on Cytochrome P450 2A6 and at Cytochrome P450 2C9 was “Not Active” throughout.

Regarding `O=C(O)c1cccnc1Nc1cccc(C(F)(F)F)c1` [NIFLUMIC ACID], the IC50 entry against Melanocortin receptor 3, at Adenosine receptor A1 (cho), against Cytochrome P450 2A6, on Melanocortin receptor 5, on Cytochrome P450 2C9 and against Acetylcholinesterase was “Not Active” each time. In addition, the Ki result on Cytochrome P450 2A6 and on Cytochrome P450 2C9 was “Not Active” throughout.

Turning to `COC(=O)Nc1nc2ccc(C(=O)c3cccs3)cc2[nH]1` [NOCODAZOLE], the half-maximal inhibitory concentration (IC50) entry is “Not Active” against Melanocortin receptor 3; 50.3 µM on Adenosine receptor A1 (read-out: IC50); “Not Active” on Cytochrome P450 2A6; “Not Active” against Melanocortin receptor 5; “Not Active” against Cytochrome P450 2C9; “Not Active” against Acetylcholinesterase. In addition, the results for the Ki at Adenosine receptor A1 (read-out: Ki), on Cytochrome P450 2A6 and on Cytochrome P450 2C9 were 29.4 µM, “Not Active” and “Not Active”, respectively.

For the compound `C#CC1(O)CC[C@H]2[C@@H]3CCC4=CC(=O)CC[C@@H]4[C@H]3CC[C@@]21CC` (some centres not stated) [NORGESTREL], the IC50 result on Melanocortin receptor 3, at Adenosine receptor A1 (cho), against Cytochrome P450 2A6, against Melanocortin receptor 5, against Cytochrome P450 2C9 and against Acetylcholinesterase was “Not Active” in each case. In addition, the Ki entry on Cytochrome P450 2A6 and at Cytochrome P450 2C9 was “Not Active” in each case.

Broadly, the IC50 is the midpoint of a concentration-inhibition curve. One may read the Ki as a measure of affinity in units of concentration, obtained from inhibition or displacement.

Source of the values: ChEMBL document CHEMBL1909046, “DrugMatrix in vitro pharmacology data”.
